According to US20240197728A1, “METHODS AND PHARMACEUTICAL COMPOSITIONS FOR TREATING REFRACTORY EPILEPSY” (INSERM (INSTITUT NATIONAL DE LA SANTÉ ET DE LA RECHERCHE …, priority 2021, published 2024):

Legend:
KCC2 [1] = assay: Immunoprecipitation/immunoblot of KCC2 phosphorylation and expression in hippocampo-cortical slices; assay type: cell-based, rat; details: for change of total KCC2 expression: slices; for change of total KCC2 expression / change of KCC2 phosphorylation at S940 / change of KCC2 phosphorylation at T906 / change of KCC2 phosphorylation at T1007: vs DMSO
Method: For all experiments on hippocampal cultures, neurons were pre-incubated for 2 hours with either DMSO, PCPZ or CLP257 in a CO2 incubator set at 37° C. Drugs were added directly to the culture medium. For electrophysiology experiments, neurons were also recorded in presence of these drugs in the bath. For biochemistry experiments on rat hippocampo-cortical slices, slices were incubated with either DMSO (vehicle), CLP257, PCPZ, WNK463 or sodium orthovanadate for 2 hours in interface chambers set at 37° C. For human tissue experiments, slices were pre-incubated with either DMSO, CLP257 or PCPZ for 2 hours in interface chambers set at 37° C. and then also recorded in presence of these compounds.
8-weeks old Sprague Dawley male rats were anesthetized by intraperitoneal ketamine/xylazine injection (120/10 mg/kg) and perfused transcardially with ice-cold (0-4° C.), oxygenated solution (O2/CO2 95/5%), containing (in mM): N-methyl-d-glucamine 93, KCl 2.5, NaH2PO4 1.2, NaHCO330, HEPES 20, D-glucose 20, ascorbic acid 5, sodium pyruvate 3, MgSO4 10 and CaCl2) 0.5 (300-310 mOsm, pH7.4). Brains were removed and transverse hippocampo-cortical slices (400 m thick) were prepared in the same solution using a vibratome (HM650V, Microm). Slices were then incubated for 2-hours with DMSO, the KCC2 enhancers (CLP257, PCPZ, WNK43) or sodium orthovanadate in an interface chamber containing artificial cerebrospinal fluid (ACSF) composed of (in mM): D-glucose 10, KCl 3.5, NaHOC3 26, NaH2PO4 1.25, NaCl 126, CaCl2) 1.6 and MgCl2 1.2 (290 mOsm), equilibrated with 5% CO2 in 95% 02. After the treatments, slices were washed with cold PBS, instantaneously frozen with liquid nitrogen and stored at −80° C.
Slices were mechanically lysed on ice, using a 2 mL Dounce, in a buffer containing (in mM): Tris/HCl, pH 7.5 50, EGTA 1, EDTA 1, sodium orthovanadate 1, sodium-B-glycerophosphate 10, sodium fluoride 50, sodium pyrophosphate 5, sucrose 270, benzamidine 1, phenylmethylsulfonyl fluoride 2, Triton […], (v/v) 2-mercaptoethanol 0.1% and protease inhibitors (Roche). After complete homogenization, samples were centrifuged (16,000×g at 4° C. for 10 min) and the supernatant was collected. Protein quantification was done using Pierce BCA Protein Assay kit (Thermo Scientific) with BSA as standard.
The following phosphorylation site-specific antibodies: anti-KCC3A phospho Thr1048 (0.35 mg/ml, sheep, [S0961C] 1st bleed, Dundee), anti-KCC3A phospho Thr 991 (0.26 mg/ml, sheep, [S959C] 1st bleed, Dundee) were first incubated for 30 min at 4° C. with the corresponding non-phosphorylated peptide (10 mg/ml, Dundee).
Phospho-antibodies or anti-KCC2 antibodies (07-432; Millipore) were then coupled with protein-G-Sepharose (4 Fast Flow; Sigma-Aldrich) at a ratio of […] of antibody per 100 μl of beads, for 2 h at 4° C. without agitation. 1.5 mg of clarified cell lysate was incubated with the antibody-coupled bead suspension, overnight at 4° C. under gentle agitation. The supernatant was collected after centrifugation and beads were washed twice with NaCl solution (0.25M NaCl in 1×PBS) and twice with PBS alone. Bound proteins were eluted with 2×LDS sample buffer (Invitrogen) containing 0.5% (v/v) 2-mercaptoethanol and denaturated at 75° C. for 20 min (IP with phospho-antibodies) or 37° C. for 1 h (IP with anti-KCC2 antibodies) before centrifugation (13,000×g at 4° C. for 15-20 min).
Samples were subjected to electrophoresis on polyacrylamide gradient gels (4-12% bis-tris gels) and transferred to nitrocellulose membranes. Membranes were rinsed with TBS-tween solution (TBST; Invitrogen) and blocked with 5% (w/v) skim milk. The membranes were then immunoblotted in 5% (w/v) skim milk in TBST with a primary antibody against KCC2 (rabbit, 07-432; Millipore; 1:1000), or phosphotyrosine (mouse, clone 4G10, Millipore, 1:1000), and a mouse primary antibody against neuron-specific beta-III tubulin overnight at 4° C. (clone 2G10; T8578; Sigma-Aldrich; 1:1000). […]

KCC2 [2] = biological target: T1, KCC2 (Rattus norvegicus, UniProt Q63633); assay: Somato-dendritic EGABA gradient (chloride extrusion), whole-cell patch clamp of hippocampal neurons; assay type: cell-based
T1 construct: endogenous in cells; host or cells: primary rat hippocampal neurons (E18-19 Sprague-Dawley)
T1 sequence (Q63633 1-1116 isoform Q63633-2): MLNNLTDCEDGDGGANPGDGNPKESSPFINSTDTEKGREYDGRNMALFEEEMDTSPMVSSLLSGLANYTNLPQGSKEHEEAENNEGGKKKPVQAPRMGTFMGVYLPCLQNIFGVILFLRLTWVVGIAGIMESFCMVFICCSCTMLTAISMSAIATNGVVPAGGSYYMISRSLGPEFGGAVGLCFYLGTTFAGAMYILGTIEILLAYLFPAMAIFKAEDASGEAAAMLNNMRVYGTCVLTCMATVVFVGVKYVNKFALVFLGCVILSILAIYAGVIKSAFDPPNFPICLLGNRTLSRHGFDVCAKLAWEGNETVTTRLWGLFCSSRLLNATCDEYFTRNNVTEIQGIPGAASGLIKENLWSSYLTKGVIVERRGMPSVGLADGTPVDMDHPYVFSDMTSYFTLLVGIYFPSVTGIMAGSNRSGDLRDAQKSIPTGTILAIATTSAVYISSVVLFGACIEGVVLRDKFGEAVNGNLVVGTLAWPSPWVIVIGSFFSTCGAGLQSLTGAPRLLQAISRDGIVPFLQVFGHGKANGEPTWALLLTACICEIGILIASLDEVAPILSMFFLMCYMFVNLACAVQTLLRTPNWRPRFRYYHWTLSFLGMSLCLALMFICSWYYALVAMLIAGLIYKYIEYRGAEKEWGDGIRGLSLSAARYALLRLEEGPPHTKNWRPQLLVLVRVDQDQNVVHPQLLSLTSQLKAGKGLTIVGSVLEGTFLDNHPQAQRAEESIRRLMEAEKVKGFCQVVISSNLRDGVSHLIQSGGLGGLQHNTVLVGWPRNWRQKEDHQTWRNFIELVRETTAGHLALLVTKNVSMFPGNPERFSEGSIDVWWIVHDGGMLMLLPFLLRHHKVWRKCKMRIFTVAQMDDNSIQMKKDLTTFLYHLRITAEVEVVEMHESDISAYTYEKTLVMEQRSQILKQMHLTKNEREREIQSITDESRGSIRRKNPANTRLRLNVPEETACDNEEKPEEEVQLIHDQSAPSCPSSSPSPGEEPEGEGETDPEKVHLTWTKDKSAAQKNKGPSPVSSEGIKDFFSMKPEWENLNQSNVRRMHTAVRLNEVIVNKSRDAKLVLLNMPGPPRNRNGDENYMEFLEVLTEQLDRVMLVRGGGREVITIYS

somato-dendritic gradient of EGABA (ΔEGABA) (KCC2 [2]; 10 μM PCPZ, 2 h, isoguvacine 100 μM, control 6.56±0.83) [mV/100 μm] | somato-dendritic gradient of EGABA (ΔEGABA) (KCC2 [2]; 100 μM CLP257, 2 h, RubiGABA 30 μM uncaging, control 5.32±1.08) [mV/100 μm] | SMILES | change of tyrosine phosphorylation of KCC2 (KCC2 [1]; 10 μM PCPZ, 2 h) | change of total KCC2 expression (KCC2 [1]; 10 μM PCPZ, 2 h) | change of KCC2 phosphorylation at S940 (KCC2 [1]; 10 μM PCPZ, 2 h) | change of KCC2 phosphorylation at T906 (KCC2 [1]; 10 μM PCPZ, 2 h) [%] | change of KCC2 phosphorylation at T1007 (KCC2 [1]; 10 μM PCPZ, 2 h) | change of tyrosine phosphorylation of KCC2 (KCC2 [1]; 100 μM CLP257, 2 h) | change of total KCC2 expression (KCC2 [1]; 100 μM CLP257, 2 h) [%] | change of KCC2 phosphorylation at S940 (KCC2 [1]; 100 μM CLP257, 2 h) [%] | change of KCC2 phosphorylation at T906 (KCC2 [1]; 100 μM CLP257, 2 h) [%] | change of KCC2 phosphorylation at T1007 (KCC2 [1]; 100 μM CLP257, 2 h) [%]
11.50±1.53 |  | CN1CCN(CCCN2c3ccccc3Sc3ccc(Cl)cc32)CC1 [PCPZ, prochlorperazine] | +6.38±14.7% | +12.1±32.8% | +20.30±18.70% | −10.20±10.40 | +26.40%±17.00 |  |  |  |  | 
 | 9.70±1.13 | O=C1N=C(N2CCCCN2)S/C1=C\c1ccc(F)cc1O [CLP257, (5Z)-5-[(4-Fluoro-2-hydroxyphenyl)methylene]-2-(tetrahydro-1-(2H)-pyridazinyl)-4(5H)-thiazolone] |  |  |  |  |  | +19.00±15.00% | −6.92±11.80 | −19.70±34.40 | −12.70±10.90 | −18.50±17.10
